Here are results for 15 compounds from US20210290648A1, “Potentiation of B-Lactam Antibiotics and B-Lactam/B-Lactamase Inhibitor Combinations Against Multidrug and Extensively Drug-Resistant Pseudomonas Aeruginosa Using Non-Ribosomal Tobramycin-Cyclam Conjugates” (University of Manitoba, priority 2018, published 2021).

Read-outs that look alike come from different tables or passages of the source.

This test has as its system WT P. aeruginosa PAO1. The test is described as follows: Checkerboard combination study / MIC. In kind it is cell-based, Pseudomonas aeruginosa. The settings on record: for MIC: Pseudomonas aeruginosa; for FICI in the presence of ≤10 μM of 1: antibiotic + compound 1; for FICI in the presence of ≤10 μM of 1 / MIC of Antibiotics in the presence of ≤10 μM of 1 / FICI in the presence of ≤10 μM of 2 / MIC of Antibiotics in the presence of ≤10 μM of 2 / FICI in the presence of ≤10 μM of 3 / MIC of Antibiotics in the presence of ≤10 μM of 3 / FICI with compounds 1-3: WT PAO1; for MIC of Antibiotics in the presence of ≤10 μM of 1: antibiotic + compound 1 ≤10 μM; for FICI in the presence of ≤10 μM of 2: antibiotic + compound 2; for MIC of Antibiotics in the presence of ≤10 μM of 2: antibiotic + compound 2 ≤10 μM; for FICI in the presence of ≤10 μM of 3: antibiotic + compound 3; for MIC of Antibiotics in the presence of ≤10 μM of 3: antibiotic + compound 3 ≤10 μM; for FICI with compounds 1-3: antibiotic + compounds 1-3 at ≤10 μM (≤16 μg/mL).

The mark [1] stands for this setting: PAO1, 18 h, antibiotic alone, WT PAO1 (Table 2), read-out: MIC alone.

For `O=C(N[C@H](CO)[C@H](O)c1ccc([N+](=O)[O-])cc1)C(Cl)Cl` [Chloramphenicol], the “FICI in the presence of ≤10 μM of 1” value is recorded as 0.25, the “MIC of Antibiotics in the presence of ≤10 μM of 1” value (from here on “MIC of Antibiotics … of 1”) came to 8 µg/mL, the “FICI in the presence of ≤10 μM of 2” value turned out to be 0.13 and the “MIC of Antibiotics in the presence of ≤10 μM of 2” value (shortened to “MIC of Antibiotics … of 2”) came out at 4 µg/mL. Also, the “FICI in the presence of ≤10 μM of 3” value was determined as 0.25 and the “MIC of Antibiotics in the presence of ≤10 μM of 3” value (“MIC of Antibiotics … of 3” below) was 8 µg/mL. The MIC – broadly, the lowest concentration found to suppress growth – under setting [1] came out at 32 µg/mL.

`CCC[C@@H]1C[C@@H](C(=O)N[C@@H]([C@H]2O[C@H](SC)[C@H](O)[C@@H](O)[C@H]2O)[C@H](C)Cl)N(C)C1` [Clindamycin]: the “FICI in the presence of ≤10 μM of 1” value is 0.50, the “MIC of Antibiotics … of 1” value was found to be 512 µg/mL, the “FICI in the presence of ≤10 μM of 2” value is recorded as 0.51 and the “MIC of Antibiotics … of 2” value was determined as 512 µg/mL. The “FICI in the presence of ≤10 μM of 3” value is listed as 0.07 and the “MIC of Antibiotics … of 3” value amounted to 64 µg/mL. In addition, the MIC under setting [1] was 1020 µg/mL.

On to `C[C@H]1c2cccc(O)c2C(=O)C2=C(O)[C@]3(O)C(=O)C(C(N)=O)=C(O)[C@@H](N(C)C)[C@@H]3[C@@H](O)[C@@H]21` [Doxycycline], for which the “FICI in the presence of ≤10 μM of 1” value is reported as 0.50, the “MIC of Antibiotics … of 1” value stood at 4 µg/mL, the “FICI in the presence of ≤10 μM of 2” value is recorded as 0.13 and the “MIC of Antibiotics … of 2” value is 1 µg/mL. Further, the “FICI in the presence of ≤10 μM of 3” value is given as 0.08 and the “MIC of Antibiotics … of 3” value was determined as 0.5 µg/mL. Further, the MIC under setting [1] is 8 µg/mL.

Regarding `CC[C@H]1OC(=O)[C@H](C)[C@@H](O[C@H]2C[C@@](C)(OC)[C@@H](O)[C@H](C)O2)[C@H](C)[C@@H](O[C@@H]2O[C@H](C)C[C@H](N(C)C)[C@H]2O)[C@](C)(O)C[C@@H](C)C(=O)[C@H](C)[C@@H](O)[C@]1(C)O` [Erythromycin], the “FICI in the presence of ≤10 μM of 1” value is 0.50, the “FICI in the presence of ≤10 μM of 2” value amounted to 0.50 and the “FICI in the presence of ≤10 μM of 3” value was found to be 0.25. For the same compound, the MIC under setting [1] is 512 µg/mL.

Consider `C[C@@H]1O[C@@H]1P(=O)(O)O` [Fosfomycin], for which the “FICI in the presence of ≤10 μM of 1” value turned out to be 0.51, the “MIC of Antibiotics … of 1” value is 8 µg/mL, the “FICI in the presence of ≤10 μM of 2” value amounted to 0.50 and the “MIC of Antibiotics … of 2” value was 8 µg/mL. In addition, the “FICI in the presence of ≤10 μM of 3” value was 1.02 and the “MIC of Antibiotics … of 3” value turned out to be 16 µg/mL. In addition, under setting [1], the MIC was 16 µg/mL.

`CC(=O)NC[C@H]1CN(c2ccc(N3CCOCC3)c(F)c2)C(=O)O1` [Linezolid]: the “FICI in the presence of ≤10 μM of 1” value is recorded as 1.00, the “MIC of Antibiotics … of 1” value turned out to be 1024 µg/mL, the “FICI in the presence of ≤10 μM of 2” value came out at 0.26 and the “MIC of Antibiotics … of 2” value was determined as 256 µg/mL. Further, the “FICI in the presence of ≤10 μM of 3” value was determined as 0.25 and the “MIC of Antibiotics … of 3” value was 256 µg/mL. Besides, the MIC under setting [1] turned out to be 1020 µg/mL.

As to `CN(C)c1ccc(O)c2c1C[C@H]1C[C@H]3[C@H](N(C)C)C(O)=C(C(N)=O)C(=O)[C@@]3(O)C(O)=C1C2=O` [Minocycline], the “FICI in the presence of ≤10 μM of 1” value came to 0.25, the “MIC of Antibiotics … of 1” value turned out to be 2 µg/mL, the “FICI in the presence of ≤10 μM of 2” value came out at 0.25 and the “MIC of Antibiotics … of 2” value is 2 µg/mL. Further, the “FICI in the presence of ≤10 μM of 3” value is 0.17 and the “MIC of Antibiotics … of 3” value was determined as 1 µg/mL. Also, the MIC under setting [1] was 8 µg/mL.

With `COc1c(N2C[C@@H]3CCCN[C@@H]3C2)c(F)cc2c(=O)c(C(=O)O)cn(C3CC3)c12` [Moxifloxacin], the “FICI in the presence of ≤10 μM of 1” value is 1.00, the “MIC of Antibiotics … of 1” value came out at 1 µg/mL, the “FICI in the presence of ≤10 μM of 2” value is reported as 0.51 and the “MIC of Antibiotics … of 2” value was determined as 0.5 µg/mL. Moreover, the “FICI in the presence of ≤10 μM of 3” value came to 1.01 and the “MIC of Antibiotics … of 3” value amounted to 1 µg/mL. For the same compound, the MIC under setting [1] is 1 µg/mL.

As for `O=C1CN(/N=C/c2ccc([N+](=O)[O-])o2)C(=O)N1` [Nitrofurantoin], the “FICI in the presence of ≤10 μM of 1” value is reported as 1.00, the “MIC of Antibiotics … of 1” value came out at 1024 µg/mL, the “FICI in the presence of ≤10 μM of 2” value is recorded as 1.00 and the “MIC of Antibiotics … of 2” value was determined as 1024 µg/mL. For the same compound, the “FICI in the presence of ≤10 μM of 3” value came out at 1.02, the “MIC of Antibiotics … of 3” value was determined as 1024 µg/mL and the “FICI with compounds 1-3” value is given as 1. The MIC under setting [1] was determined as 1020 µg/mL.

Take `CO[C@@H]1[C@@H](OC(N)=O)[C@@H](O)[C@H](Oc2ccc3c(O)c(NC(=O)c4ccc(O)c(CC=C(C)C)c4)c(=O)oc3c2C)OC1(C)C` [Novobiocin]: the “FICI in the presence of ≤10 μM of 1” value turned out to be 0.13, the “MIC of Antibiotics … of 1” value amounted to 64 µg/mL, the “FICI in the presence of ≤10 μM of 2” value is on record as 0.13 and the “MIC of Antibiotics … of 2” value was found to be 64 µg/mL. The “FICI in the presence of ≤10 μM of 3” value is recorded as 0.08, the “MIC of Antibiotics … of 3” value was 32 µg/mL and the “FICI with compounds 1-3” value is listed as 0.08-0.13. The MIC under setting [1] was determined as 512 µg/mL.

Take `C=C[C@]1(C)C[C@@H](OC(=O)CO)[C@]2(C)[C@H](C)CC[C@]3(CCC(=O)[C@H]32)[C@@H](C)[C@@H]1O` [Pleuromutilin]: the “FICI in the presence of ≤10 μM of 1” value is recorded as 1.00, the “MIC of Antibiotics … of 1” value amounted to 512 µg/mL, the “FICI in the presence of ≤10 μM of 2” value worked out at 1.00 and the “MIC of Antibiotics … of 2” value worked out at 512 µg/mL. Further, the “FICI in the presence of ≤10 μM of 3” value turned out to be 0.25 and the “MIC of Antibiotics … of 3” value was 128 µg/mL. For the same compound, under setting [1], the MIC was 512 µg/mL.

With `CO[C@H]1/C=C/O[C@@]2(C)Oc3c(C)c(O)c4c(O)c(c(/C=N/N5CCN(C)CC5)c(O)c4c3C2=O)NC(=O)/C(C)=C\C=C\[C@H](C)[C@H](O)[C@@H](C)[C@@H](O)[C@@H](C)[C@H](OC(C)=O)[C@@H]1C` [Rifampicin], the “FICI in the presence of ≤10 μM of 1” value worked out at 0.13, the “MIC of Antibiotics … of 1” value was found to be 2 µg/mL, the “FICI in the presence of ≤10 μM of 2” value was determined as 0.13 and the “MIC of Antibiotics … of 2” value was 2 µg/mL. Also, the “FICI in the presence of ≤10 μM of 3” value is reported as 0.25, the “MIC of Antibiotics … of 3” value came out at 4 µg/mL and the “FICI with compounds 1-3” value is 0.13-0.25. In addition, the minimal inhibitory concentration (MIC) under setting [1] stood at 16 µg/mL.

In the case of `CN(C)c1cc(NC(=O)CNC(C)(C)C)c(O)c2c1C[C@H]1C[C@H]3[C@H](N(C)C)C(O)=C(C(N)=O)C(=O)[C@@]3(O)C(O)=C1C2=O` [Tigecycline], the “FICI in the presence of ≤10 μM of 1” value was 0.25, the “MIC of Antibiotics … of 1” value came out at 2 µg/mL, the “FICI in the presence of ≤10 μM of 2” value was found to be 0.50 and the “MIC of Antibiotics … of 2” value is 2 µg/mL. The “FICI in the presence of ≤10 μM of 3” value is recorded as 0.52 and the “MIC of Antibiotics … of 3” value is 2 µg/mL. For the same compound, the MIC (PAO1, read-out: MIC alone) was 4 µg/mL.

With `COc1cc(Cc2cnc(N)nc2N)cc(OC)c1OC` [Trimethoprim], the “FICI in the presence of ≤10 μM of 1” value was found to be 0.50, the “MIC of Antibiotics … of 1” value amounted to 32 µg/mL, the “FICI in the presence of ≤10 μM of 2” value worked out at 0.50 and the “MIC of Antibiotics … of 2” value stood at 32 µg/mL. Moreover, the “FICI in the presence of ≤10 μM of 3” value worked out at 0.50 and the “MIC of Antibiotics … of 3” value stood at 32 µg/mL. In addition, the MIC under setting [1] was 64 µg/mL.

Take `CN[C@H](CC(C)C)C(=O)N[C@H]1C(=O)N[C@@H](CC(N)=O)C(=O)N[C@H]2C(=O)N[C@H]3C(=O)N[C@H](C(=O)N[C@H](C(=O)O)c4cc(O)cc(O)c4-c4cc3ccc4O)[C@H](O)c3ccc(c(Cl)c3)Oc3cc2cc(c3O[C@@H]2O[C@H](CO)[C@@H](O)[C@H](O)[C@H]2O[C@H]2C[C@](C)(N)[C@H](O)[C@H](C)O2)Oc2ccc(cc2Cl)[C@H]1O` [Vancomycin]: the “FICI in the presence of ≤10 μM of 1” value was determined as 0.50, the “MIC of Antibiotics … of 1” value turned out to be 128 µg/mL, the “FICI in the presence of ≤10 μM of 2” value worked out at 0.26 and the “MIC of Antibiotics … of 2” value came to 64 µg/mL. For the same compound, the “FICI in the presence of ≤10 μM of 3” value came to 0.50 and the “MIC of Antibiotics … of 3” value was found to be 128 µg/mL. In addition, the MIC (PAO1, 18 h, read-out: MIC alone) stood at 256 µg/mL.
